According to patent US20090162413A1 (priority 1998, published 2009):

How the values were obtained:
[1] = tested on: porcine coronary arteries (neointimal hyperplasia); experiment: porcine coronary stent model, zotarolimus-eluting BiodivYsio PC stent vs polymer only stent, 28 days (Example 3); format: in vivo; conditions: stent eluting zotarolimus from a polymer, porcine coronary artery
[2] = release of zotarolimus from PC polymer coated 316L stainless steel coupons (Example 4); format: physicochemical
Excerpt: The purpose of this example is to determine the rate of release of the zotarolimus drug from 316L Electropolished Stainless Steel Coupons coated with a biocompatible polymer containing phosphorylcholine side groups.
Rubber septa from lids from HPLC vials were removed from the vials and placed into glass vials so that the “Teflon” side faced up. These septa served as supports for the test samples. The test samples were 316L stainless steel coupons that had been previously coated with a biocompatible polymer containing phosphorylcholine side groups (PC polymer). Coronary stents are commonly made of 316L stainless steel and can be coated with the PC polymer to provide a depot site for loading drugs. The coated coupons, which serve to simulate stents, were placed onto the septa. By using a glass Hamilton Syringe, a solution of zotarolimus and ethanol (10 μl) was applied to the surface of each coupon. The solution contained zotarolimus (30.6 mg) dissolved in 100% ethanol (3.0 ml). The syringe was cleaned with ethanol between each application. The cap to the glass vial was placed on the vial loosely, thereby assuring proper ventilation. The coupon was allowed to dry for a minimum of 1.5 hours. Twelve (12) coupons were loaded in this way—six being used to determine the average amount of drug loaded onto the device and six being used to measure the time needed to release the drug from the devices.
To determine the total amount of zotarolimus loaded onto a coupon, a coupon was removed from the vial and placed into 50/50 acetonitrile/0.01M phosphate buffer (pH 6.0, 5.0 ml). The coupon was placed onto a 5210 Branson sonicator for one hour. The coupon was then removed from the solution, and the solution was assayed by HPLC.
The time release studies were performed by immersing and removing the individual coupons from fresh aliquots (10.0 ml) of 0.01 M phosphate buffer at a pH of 6.0 at each of the following time intervals −5, 15, 30 and 60 minutes. For the remaining time points of 120, 180, 240, 300, 360 minutes, volumes of 5.0 ml of buffer were used. To facilitate mixing during the drug release phase, the samples were placed onto an Eberbach shaker set at low speed. All solution aliquots were assayed by HPLC after the testing of the last sample was completed.
The HPLC analysis was performed with a Hewlett Packard series 1100 instrument having the following settings: […]

[3] = release of zotarolimus from 15 mm BiodivYsio drug delivery stents (Example 5); format: physicochemical; conditions: 15 mm BiodivYsio stents
Method: To load the stents with drug, a solution of zotarolimus in ethanol at a concentration of 50 mg/ml was prepared and dispensed into twelve vials. Twelve individual polymer-coated stents were placed on fixtures designed to hold the stent in a vertical position and the stents were immersed vertically in the drug solution for five minutes. The stents and fixtures were removed from the vials and excess drug solution was blotted away by contacting the stents with an absorbent material. The stents were then allowed to dry in air for 30 minutes in an inverted vertical position.
The stents were removed from the fixtures, and each stent was placed into 50/50 acetonitrile/phosphate buffer (pH 5.1, 2.0 ml) and sonicated for one hour. The stents were removed from the solution and solutions were assayed for concentration of drug, which allowed calculation of the amount of drug originally on the stents. This method was independently shown to remove at least 95% of the drug from the stent coating. On average, the stents included 120±9 micrograms of drug.
The drug-loaded stents were placed on the fixtures and placed into 0.01 M phosphate buffer (pH=6.0, 1.9 ml) in individual vials. These samples were placed onto a Eberbach shaker set at low speed to provide back-and-forth agitation. To avoid approaching drug saturation in the buffer, the stents were transferred periodically to fresh buffer vials at the following points: 15, 30, 45, 60, 120, 135, 150, 165, 180, 240, 390 minutes. The dissolution buffer vials were assayed by HPLC for the drug concentration at the end of the drug release period studied. The data, represented as % cumulative release of the drug as a function of time, is shown in tabular form below (Table 7): […]

Q: Which neointimal hyperplasia [1] does the source give for `CO[C@H]1C[C@@H]2CC[C@@H](C)[C@@](O)(O2)C(=O)C(=O)N2CCCC[C@H]2C(=O)O[C@H]([C@H](C)C[C@@H]2CC[C@H](n3cnnn3)[C@H](OC)C2)CC(=O)[C@H](C)/C=C(\C)[C@@H](O)[C@@H](OC)C(=O)[C@H](C)C[C@H](C)/C=C/C=C/C=C/1C` [zotarolimus] here?
A: reduction in neointimal hyperplasia

Q: What about the “Percent Release” value ([2]; 0.01 M phosphate buffer pH 6.0, 0.00 min) of the same compound?
A: 0.00

Q: And the “Percent Release” value ([2]; 0.01 M phosphate buffer pH 6.0, 5.00 min)?
A: 1.87

Q: What about the “Percent Release” value ([2]; 0.01 M phosphate buffer pH 6.0, 15.00 min) of the same compound?
A: 2.97

Q: And the “Percent Release” value ([2]; 0.01 M phosphate buffer pH 6.0, 30.00 min)?
A: 3.24

Q: And the “Percent Release” value ([2]; 0.01 M phosphate buffer pH 6.0, 60.00 min)?
A: 3.29

Q: What about the “Percent Release” value ([2]; 0.01 M phosphate buffer pH 6.0, 180.00 min) of the same compound?
A: 4.36

Q: And the “Percent Release” value ([2]; 0.01 M phosphate buffer pH 6.0, 240.00 min)?
A: 4.37

Q: What about the “Percent Release” value ([2]; 0.01 M phosphate buffer pH 6.0, 300.00 min) of the same compound?
A: 6.34

Q: And the “Percent Release” value ([2]; 0.01 M phosphate buffer pH 6.0, 360.00 min)?
A: 7.88

Q: What about the “% Cumulative Release of Drug” value ([3]; 0.01 M phosphate buffer pH 6.0, 15 min) of the same compound?
A: 0.3%

Q: And the “% Cumulative Release of Drug” value ([3]; 0.01 M phosphate buffer pH 6.0, 30 min)?
A: 1.1%

Q: And the “% Cumulative Release of Drug” value ([3]; 0.01 M phosphate buffer pH 6.0, 45 min)?
A: 2.1%

Q: And the “% Cumulative Release of Drug” value ([3]; 0.01 M phosphate buffer pH 6.0, 60 min)?
A: 3.2%

Q: And the “% Cumulative Release of Drug” value ([3]; 0.01 M phosphate buffer pH 6.0, 120 min)?
A: 4.3%

Q: What about the “% Cumulative Release of Drug” value ([3]; 0.01 M phosphate buffer pH 6.0, 135 min) of the same compound?
A: 5.9%

Q: What about the “% Cumulative Release of Drug” value ([3]; 0.01 M phosphate buffer pH 6.0, 150 min) of the same compound?
A: 6.3%

Q: What about the “% Cumulative Release of Drug” value ([3]; 0.01 M phosphate buffer pH 6.0, 165 min) of the same compound?
A: 6.8%

Q: And the “% Cumulative Release of Drug” value ([3]; 0.01 M phosphate buffer pH 6.0, 180 min)?
A: 7.4%

Q: And the “% Cumulative Release of Drug” value ([3]; 0.01 M phosphate buffer pH 6.0, 240 min)?
A: 10.8%

Q: And the “% Cumulative Release of Drug” value ([3]; 0.01 M phosphate buffer pH 6.0, 390 min)?
A: 13.2%
